Source: patent publication US20060167083A1, “Therapeutic methods and compositions involving isoflav-3-ene and isoflavan structures” (priority 2002, published 2006)
In brackets after ≈: the same amount, converted by molar mass. Several values for one entry are separate records, joined by “and”; a condition that tells them apart may be missing. Equal values may be shown once. Entries after “also recorded” stand apart in the source; their conditions may differ.

Legend:
prostate cancer line PC3 = test: Anti-proliferative effect on PC3; type: cell-based; conditions: Homo sapiens, PC-3
[1] = test system: Human umbilical vein endothelial cells (HUVEC); test: Endothelial cell proliferation assay (MTT); type: cell-based
Procedure: Cells: Human umbilical vein endothelial cells (HUVEC) were prepared and grown as previously described^30. The cells were used between passages 2 and 6 for all experiments. The human prostatic adenocarcinoma cell line, LNCaP was obtained from American Tissue Type Collection and maintained according to the instructions of the supplier.
Proliferation assay: HUVEC were seeded at 3×10^3 cells per gelatin-coated microtitre well and grown in complete medium for 3 days. Dehydroequol (De) was added 3 hours after plating. Proliferation was measured using the MTT assay (Promega, Wis., USA) and is given as the rate of proliferation over the 3 days±SEM of quadruplicate determinations for each group. Proliferation of LNCaP cells was determined using the MTT assay. Cells were seeded at 2.5×10^3 cells per microtitre well. De was added 4 days after plating and assayed after a further 5 days of growth. Cell viability is expressed as a percentage of control untreated cells.

VEGF receptor 2 = VEGF receptor 2 expression on EC, flow cytometric analysis; type: cell-based; conditions: after De treatment, data not shown
IL-8 = IL-8 secretion from endothelial cells (immunoassay); type: cell-based, human; conditions: TNF stimulated endothelial cells
Procedure: IL8 assay: IL-8 assays were performed using a “Quantikine Human IL-8 Immunoassay” (R & D Systems, Minneapolis Minn. USA).

leukaemic cell line K562 = test: Anti-proliferative effect on K562; type: cell-based; conditions: Homo sapiens
MMP-2 = test: Northern blot analysis of MMP-2 mRNA in endothelial cells; type: cell-based, human; conditions: 10 μg/ml for 18 hours; two experiments; listed as De
Procedure: Northern blot analysis: HUVEC were plated at 1×10^6 cells per 25 cm^2 flask and grown for 48 hours. Following treatment with DMSO vehicle or De (10 μg/ml final) for 18 hours, total RNA was harvested and purified using TRIZOL reagent (Invitrogen—Life Technologies, Groningen, Netherlands) according to the manufacturer's protocol. Northern blot analysis was performed using 8 μg total RNA transferred onto Hybond-N membranes (Amersham Biosciences, Buckinghamshire, England) and probed with human MMP-2 and GAPDH cDNAs using a Strip-EZ PCR stripAble PCR Probe synthesis and removal Kit (Ambion, Tex., USA).

[2] = test system: K562, HL60, MCF7, HT29, CaCo-2, DU145, PC3 and LNCaP cell lines; test: Cytotoxic potency compared with genistein on the cancer cell line panel; type: cell-based; conditions: on these cell lines
human topo I = molecular target: T1, human topo I (Homo sapiens, UniProt P11387); test: Topo I-mediated plasmid relaxation assay; type: biochemical; conditions: concentrations up to 100 μg/ml, absence of ATP
T1 construct: purchased Topogen (Columbus, Ohio)
T1 sequence (P11387 1-765): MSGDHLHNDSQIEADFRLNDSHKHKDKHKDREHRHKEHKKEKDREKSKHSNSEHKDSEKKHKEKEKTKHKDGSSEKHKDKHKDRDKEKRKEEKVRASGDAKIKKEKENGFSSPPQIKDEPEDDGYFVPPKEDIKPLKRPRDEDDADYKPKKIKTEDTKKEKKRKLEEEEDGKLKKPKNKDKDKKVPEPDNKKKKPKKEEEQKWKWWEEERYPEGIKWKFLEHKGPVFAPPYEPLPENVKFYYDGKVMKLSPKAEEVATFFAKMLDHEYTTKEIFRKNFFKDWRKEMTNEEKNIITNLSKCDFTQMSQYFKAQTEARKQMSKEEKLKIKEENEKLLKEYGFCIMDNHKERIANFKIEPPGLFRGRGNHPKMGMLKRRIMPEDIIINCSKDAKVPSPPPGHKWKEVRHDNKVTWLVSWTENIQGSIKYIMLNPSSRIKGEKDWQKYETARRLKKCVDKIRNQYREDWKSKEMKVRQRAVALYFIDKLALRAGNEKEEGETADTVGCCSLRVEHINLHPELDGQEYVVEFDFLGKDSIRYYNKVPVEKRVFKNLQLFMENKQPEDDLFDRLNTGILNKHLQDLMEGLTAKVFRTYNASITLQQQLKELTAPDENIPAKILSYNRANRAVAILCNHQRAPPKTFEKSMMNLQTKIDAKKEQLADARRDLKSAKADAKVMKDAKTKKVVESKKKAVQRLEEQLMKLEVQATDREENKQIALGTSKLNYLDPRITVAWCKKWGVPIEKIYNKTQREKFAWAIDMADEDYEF
Procedure: Topo I activity was determined by converting supercoiled pUC8 DNA (SC) into its relaxed from (REL).
For the determination of topoisomerase (topo) I catalytic activity, pUC8 DNA was used as the substrate in a reaction volume of 20 μl containing the following: 10 mM Tris-HCl, pH 7.9, 1 mM EDTA, 150 mM NaCl, 0.1% BSA, 0.1 mM spermidine, 5% glycerol, and 2 units of purified human topo I. The inhibitor, when applicable, was added as indicated, and the reaction was initiated by the addition of the enzyme. Reactions were carried out at 37° C. for 30 min. Gel electrophoresis was performed at 4 V/cm for 5 h in Tris-borate-EDTA buffer. For the quantitative determination of topo I activity, photographic negatives were scanned. The area representing supercoiled DNA, migrating as a single band at the bottom of the gel, was determined. The concentrations of the inhibitor that prevented 50% of the supercoiled DNA from being converted into relaxed DNA (IC50 values) were determined by averaging the data from at least three experiments.

human topo II = molecular target: T2, human topo II (Homo sapiens, UniProt P11388); test: Topo II-mediated plasmid linearisation assay; type: biochemical
T2 construct: purchased Topogen (Columbus, Ohio)
Procedure: FIG. 3 represents an assay for determining the effect of dehydroequol on double-stranded DNA cleavage. pRYG DNA was incubated with ten units of human topo II (lanes 2-6) in the absence (lane 1) or presence of 10, 30, or 100 μg/ml dehydroequol (lanes 2-4), or 30 μg/ml genistein (lane 5), or 10 μg/ml VP-16 (lane 6). Lane 7, linear pUC8 DNA marker. Double-strand DNA breakage was determined by converting relaxed (REL) or supercoiled (SC) pRYG DNA to the linear (LIN) form.
A linearisation assay was employed to determine if dehydroequol is a topo II poison. Double-strand breakage results in the appearance of linear DNA. […] This effect, which was evident at 10 μg/ml, peaked at 30 μg/ml.
Topo II poisons enhance topo II-mediated DNA cleavage and can be identified with the linearisation assay under the reaction conditions provided by the supplier of the enzyme (Topogen, Inc.). Briefly, 20-μl reaction mixtures contained 30 mM Tris-HCl, pH 7.6, 3 mM ATP, 15 mM β-mercaptoethanol, 8 mM MgCl2, 60 mM NaCl, 1 μl of the test agent (or solvent), 0.3 μg of pRYG, and 10 units of human topo II (added last). After a 15-min incubation at 37° C., SDS-proteinase K was added, and following a 15 min incubation at 37° C., samples were extracted with CHCl3-isopropanol and electrophoresis was performed on a 1% agarose gel containing ethidium bromide. Gels were photographed, and photographic negatives were scanned.

PECAM-1 = PECAM-1 expression on EC, flow cytometric analysis; type: cell-based; conditions: after De treatment, data not shown
colon cancer line CaCo-2 = test: Anti-proliferative effect on CaCo-2; type: cell-based; conditions: Homo sapiens

T2 sequence (P11388 whole entry): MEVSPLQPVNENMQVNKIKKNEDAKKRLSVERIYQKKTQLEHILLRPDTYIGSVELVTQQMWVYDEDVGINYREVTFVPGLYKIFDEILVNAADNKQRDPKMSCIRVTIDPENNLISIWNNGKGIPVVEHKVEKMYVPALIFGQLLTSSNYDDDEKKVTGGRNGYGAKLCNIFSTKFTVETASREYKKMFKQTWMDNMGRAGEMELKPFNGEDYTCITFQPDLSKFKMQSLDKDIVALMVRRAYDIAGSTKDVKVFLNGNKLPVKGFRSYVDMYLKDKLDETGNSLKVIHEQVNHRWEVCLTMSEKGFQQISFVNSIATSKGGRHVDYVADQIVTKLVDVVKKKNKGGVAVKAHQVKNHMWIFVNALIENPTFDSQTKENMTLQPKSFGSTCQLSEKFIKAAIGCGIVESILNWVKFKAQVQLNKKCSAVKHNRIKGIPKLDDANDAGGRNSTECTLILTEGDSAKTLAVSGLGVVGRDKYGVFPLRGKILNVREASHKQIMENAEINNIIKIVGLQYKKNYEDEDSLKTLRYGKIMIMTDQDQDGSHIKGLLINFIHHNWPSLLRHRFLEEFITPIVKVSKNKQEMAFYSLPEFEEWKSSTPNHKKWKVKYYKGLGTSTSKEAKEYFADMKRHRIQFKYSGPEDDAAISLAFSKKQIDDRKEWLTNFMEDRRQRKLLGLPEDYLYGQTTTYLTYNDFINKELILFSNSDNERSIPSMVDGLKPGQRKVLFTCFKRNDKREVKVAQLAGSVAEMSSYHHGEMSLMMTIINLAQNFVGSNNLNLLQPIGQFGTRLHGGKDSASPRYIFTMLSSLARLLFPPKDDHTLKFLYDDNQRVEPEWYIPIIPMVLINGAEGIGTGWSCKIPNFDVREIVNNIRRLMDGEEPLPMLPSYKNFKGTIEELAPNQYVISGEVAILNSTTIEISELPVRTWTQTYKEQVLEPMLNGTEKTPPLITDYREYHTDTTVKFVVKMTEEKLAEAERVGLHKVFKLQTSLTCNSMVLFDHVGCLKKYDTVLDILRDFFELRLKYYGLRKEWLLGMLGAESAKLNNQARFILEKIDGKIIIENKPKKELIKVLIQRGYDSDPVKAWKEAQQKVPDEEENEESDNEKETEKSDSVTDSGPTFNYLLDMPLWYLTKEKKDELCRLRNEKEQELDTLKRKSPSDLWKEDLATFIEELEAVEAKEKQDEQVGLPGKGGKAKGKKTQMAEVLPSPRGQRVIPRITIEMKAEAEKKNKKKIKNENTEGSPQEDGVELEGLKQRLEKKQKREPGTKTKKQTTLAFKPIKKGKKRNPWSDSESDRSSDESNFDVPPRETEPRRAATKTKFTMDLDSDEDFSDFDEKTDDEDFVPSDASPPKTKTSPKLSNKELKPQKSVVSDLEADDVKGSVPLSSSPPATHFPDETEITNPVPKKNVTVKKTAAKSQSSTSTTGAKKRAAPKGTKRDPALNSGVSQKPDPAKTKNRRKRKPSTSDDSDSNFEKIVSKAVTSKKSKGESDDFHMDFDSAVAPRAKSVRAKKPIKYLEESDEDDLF

## Oc1ccc(C2=Cc3ccc(O)cc3OC2)cc1 [Dehydroequol, 4′,7-dihydroxyisoflav-3-ene]
Prostate cancer line PC3
  IC50: 2 µg/mL (≈ 8.32 µM)
[1]
  cell death in proliferation assays: did not cause cell death
[1]; Homo sapiens, HUVEC, 10 μg/ml, five experiments
  inhibition at 10 µg/mL: 91%
VEGF receptor 2
  level of expression of VEGF receptor 2: no changes
IL-8
  secretion of EL-8: inhibits the secretion
Leukaemic cell line K562
  IC50: 3 µg/mL (≈ 12.5 µM)
MMP-2
  decrease in level of mRNA for MMP-2: 68.3% and 46.7%
[2]
  potency as a cytotoxic agent relative to genistein: 5-20 times
Human topo I
  inhibition of topo I-catalysed relaxation of pUC8 DNA: did not inhibit
Human topo II
  concentration producing detectable (comparable) topo II-mediated linear plasmid DNA: 20 µg/mL
Human topo II; genistein 30 μg/ml, VP-16 10 μg/ml
  effect on topo II-mediated DNA strand breakage compared with positive controls: much greater than genistein; also recorded: comparable to VP-16
Human topo II; pRYG DNA, proteinase K/SDS
  concentration at which production of linear plasmid DNA peaked: 30 µg/mL
  concentration at which production of linear plasmid DNA was evident: 10 µg/mL
PECAM-1
  level of expression of PECAM-1: no changes
Colon cancer line CaCo-2
  IC50: 1 µg/mL (≈ 4.16 µM)
